According to patent publication US7186730B2, “Bicyclic nitrogen-containing heterocyclic derivatives for use as antibacterials” (priority 2001, dated 2007):
Where a name gives a salt, the structure may show the parent alone. Read-outs that look alike come from different tables or passages of the source.

Assay: MIC of test compounds against various organisms
Type: cell-based
Description: The MIC (μg/ml) of test compounds against various organisms was determined: S. aureus Oxford, S. aureus WCUH29, S. pneumoniae 1629, S. pneumoniae N1387, S. pneumoniae ERY 2, E. faecalis I, E. faecalis 7,H. influenzaeQ1, H. influenzae NEMC1, M. catarrhalis 1502.

[1] = versus all these organisms (10-strain panel), read-out: MIC

SMILES | MIC [1] [µg/mL] | MIC [µg/mL]
COc1ccc2nccc(NC(=O)C3CCN(CCc4cnc5ccccc5n4)CC3)c2n1 [Example 9, 1-(2-Quinoxalin-2-yl-ethyl)piperidine-4-carboxylic acid (6-methoxy-[1,5]naphthyridin-4-yl)-amide] | ≤ 64 | –
COc1ccc2nccc(NC(=O)C3CCN(CCc4nc5c(F)cccc5[nH]4)CC3)c2n1 [Example 4, 1-[2-(4-Fluoro-1H-benzoimidazol-2-yl)-ethyl]-piperidine-4-carboxylic acid (6-methoxy-[1,5]naphthyridin-4-yl)-amide, dioxalate] | ≤ 4 | –
COc1ccc2nccc(NC(=O)C3CCN(CCc4ccc5c(c4)NC(=O)CS5)CC3)c2n1 [Example 1, 1-[2-(3-Oxo-3,4-dihydro-2H-benzo[1,4]thiazin-6-yl)-ethyl]-piperidine-4-carboxylic acid (6methoxy-[1,5]naphthyridinylaramide oxalate] | ≤ 4 | –
COc1ccc2nccc(NC(=O)C3CCN(CC(O)c4ccc5c(c4)NC(=O)CO5)CC3)c2n1 (stereo not drawn) [Example 19, R,S-1-[2-Hydroxy-2-(3-oxo-3,4-dihydro-2H-benzo[1,4]oxazin-6-yl)-ethyl]-piperidine-4-carboxylic acid (6-methoxy-[1,5]naphthyridin-4-yl)-amide oxalate] | ≤ 16 | –
COc1ccc2nccc(NC(=O)C3CCN(CC(O)c4ccc5c(c4)OCCO5)CC3)c2n1 (stereo not drawn) [Example 18, R,S-1-[2-(2,3-Dihydro-benzo[1,4]dioxin-6-yl)-2-hydroxy-ethyl]-piperidine-4-carboxylic acid (6-methoxy-[1,5]naphthyridin-4-yl)-amide oxalate] | ≤ 4 | –
COc1ccc2nccc(OCC3CCN(CC(O)c4ccc5c(c4)NC(=O)CS5)CC3)c2n1 (stereo not drawn) [Example 17, R,S-6-{1-Hydroxy-2-[4-(6methoxy-[1,5]naphthyridin-4-yloxymethyl)-piperidin-1-yl]-ethyl}-4H-benzo[1,4]thiazin-3-one hydrochloride] | ≤ 16 | –
COc1ccc2nccc(NC(=O)C3CCN(CCc4cc5c(cn4)OCCO5)CC3)c2n1 [Example 16, 1-[2-(2,3-Dihydro-[1,4]dioxino[2,3-c]pyridin-7-yl)-ethyl]-piperidine-4-carboxylic acid (6-methoxy-[1,5]naphthyridin-4-yl)-amide hydrochloride] | – | ≤ 4
COc1ccc2nccc(NC(=O)C3CCN(CCc4ccc5nsnc5c4)CC3)c2n1 [Example 5, 1-(2-Benzo[1,2,5]thiadiazol-5-yl-ethyl)-piperidine-4-carboxylic acid (6-methoxy-[1,5]naphthyridin-4-yl)-amide, dioxalate] | ≤ 64 | –
COc1ccc2nccc(NC(=O)C3CCN(CCc4ccc5c(c4)OCO5)CC3)c2n1 [Example 2, 1-(2-Benzo[1,3]dioxol-5yl-ethyl)-piperidine4-carboxylic acid (6-methoxy-[1,5]naphthyridin-4-yl)amide, dioxalate] | ≤ 4 | –
COc1ccc2nccc(NC(=O)C3CCN(CC(O)c4ccc5c(c4)NC(=O)CS5)CC3)c2n1 (stereo not drawn) [Example 12, R,S-1-[2-Hydroxy-2-(3-oxo-3,4-dihydro-2H-benzo[1,4]thiazin-6-yl)-ethyl]-piperidine-4-carboxylic acid (6methoxy-[1,5]naphthyridin-4-yl)-amide oxalate] | ≤ 4 | –
COc1ccc2nccc(OCC3CCN(CCc4ccc5c(c4)OCCO5)CC3)c2n1 [Example 21, 8-{1-[2-(2,3-Dihydro-benzo[1,4]dioxin-6-yl)-ethyl]-piperidin-4-ylmethoxy}-2-methoxy-[1,5]naphthyridine hydrochloride] | – | ≤ 64
COc1ccc2nccc(NC(=O)C3CCN(CC(=O)c4ccc5c(c4)NC(=O)CS5)CC3)c2n1 [Example 11, 1-[2-Oxo-2-(3-oxo-3,4dihydro-2H-benzo[1,4]thiazin-6-yl)-ethyl]-piperidine-4-carboxylic acid (6-methoxy-[1,5]naphthyridin-4-yl)-amide oxalate] | ≤ 64 | –
COc1ccc2nccc(NC(=O)C3CCN(CCc4ccc5c(c4)OCCO5)CC3)c2n1 [Example 3, 1-[2-(2,3-Dihydro-benzo[1,4]dioxin-6-yl)-ethyl]-piperidine-4-carboxylic acid (6-methoxy-[1,5]naphthyridin-4-yl)-amide, dioxalate] | ≤ 4 | –
COc1ccc2nccc(NC(=O)C3CCN(CC(=O)c4ccc5c(c4)NC(=O)CO5)CC3)c2n1.O=C(O)C(=O)O [Example 13, 1-[2-Oxo-2-(3-oxo-3,4-dihydro-2H-benzo[1,4]oxazin-6-yl)ethyl]-piperidine-4-carboxylic acid (6-methoxy-[1,5]naphthyridin-4-yl)-amide oxalate] | ≤ 4 | –
COc1ccc2nccc(NC(=O)C3CCN(CC(=O)c4ccc5c(c4)OCCO5)CC3)c2n1 [Example 14, 1-[2-(2,3-Dihydro-benzo[1,4]dioxin-6-yl)-2-oxo-ethyl]-piperidine-4-carboxylic acid (6methoxy-[1,5]naphthyridin-4-yl)-amide oxalate] | ≤ 16 | –
COc1ccc2nccc(NC(=O)C3CCN(CCc4ccc5c(c4)NC(=O)CO5)CC3)c2n1 [Example 7, 1-[2-(3-Oxo-3,4-dihydro-2H-benzo-[1,4]oxazin-6-yl)ethyl]-piperidine-4-carboxylic acid (6-methoxy-[1,5]naphthyridin-4-yl)-amide, dioxalate] | ≤ 16 | –
COc1ccc2nccc(NC(=O)C3CCN(CCc4ccc5c(c4)oc(=O)n5C)CC3)c2n1 [Example 6, 1-[2-(3-Methyl-2-oxo-2,3-dihydro-benzooxazol-6-yl)-ethyl]-piperidine-4-carboxylic acid (6-methoxy-[1,5]naphthyridin-4-yl)-amide, dioxalate] | ≤ 64 | –
COc1ccc2nccc(NC(=O)C3CCN(CC(O)c4cnc5c(c4)NC(=O)CS5)CC3)c2n1 (stereo not drawn) [Example 15, R and S-1-[2-Hydroxy-2-(2-oxo-2,3-dihydro-1H-pyrido[2,3-b][1,4]thiazin-7-yl)-ethyl]-piperidine-4-carboxylic acid (6-methoxy-[1,5]naphthyridin-4-yl)-amide hydrochloride] | – | ≤ 4
